Assay [1] has as its target T1, Ubiquitin-conjugating enzyme E2 N (Homo sapiens, UniProt P61088).
T1 sequence (P61088 whole entry): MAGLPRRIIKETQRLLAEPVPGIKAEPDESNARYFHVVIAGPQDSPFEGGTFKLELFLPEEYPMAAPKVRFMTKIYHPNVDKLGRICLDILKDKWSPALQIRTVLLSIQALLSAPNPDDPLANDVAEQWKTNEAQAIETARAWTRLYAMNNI
The experiment in a line: Inhibition of UBE2N (unknown origin).

The target of assay [2] is T1, Ubiquitin-conjugating enzyme E2 N. The experiment in a line: Inhibition of UBE2N (unknown origin) by TR-FRET analysis. A general note: TR-FRET usually uses a lanthanide donor and a delayed reading to cut background.
Assay [3] in a line: Inhibition of HDM2/p53 (unknown origin) protein-protein interaction. Also noted: species or system Homo sapiens.

Each structure is given as a SMILES string.

Turning to `COC(=O)c1cc2c(cn1)[nH]c1ccc(O)cc12`, in assay [1], the IC50 (commonly the concentration at which inhibition is half-maximal) stood at 16 µM.
With `O=C(NCC1CCN(Cc2cccc(Cl)c2)CC1)[C@@H]1CCCN(c2ncnc3c2nc2n3CCCC2)C1`, inhibition in assay [2] was half-maximal at 0.781 µM (IC50).
As for `C=C1CC(C)(C)[C@@H](/C=C\[C@@H](C)[C@H]2CC[C@H]3[C@@H]4C[C@H](OS(=O)(=O)O)[C@H]5C[C@@H](O)CC[C@]5(C)[C@H]4CC[C@]23C)[C@H]1CC(O)[C@@H](C)[C@H]1CC[C@H]2[C@@H]3C[C@H](OS(=O)(=O)O)[C@H]4C[C@H](OS(=O)(=O)O)[C@@H](OS(=O)(=O)O)C[C@]4(C)[C@H]3CC[C@]12C` (stereo partly specified), the half-maximal inhibitory concentration (IC50) in assay [1] was 0.13 µM.
In assay [3], `C[C@@H](N)[C@@H](O)C/C=C\C/C=C\C/C=C\C/C=C\C/C=C\C/C=C\CCCCCC[C@H](O)[C@@H](C)N` [LEUCETTAMOL A] gave a 50% inhibitory concentration (IC50) of 150 µM.
In the case of `CC1=CC(C)(C)[C@@H](/C=C\[C@@H](C)[C@H]2CC[C@H]3[C@@H]4C[C@H](OS(=O)(=O)O)[C@H]5C[C@H](O)[C@@H](OS(=O)(=O)O)C[C@]5(C)[C@H]4CC[C@]23C)[C@H]1CC[C@@H](C)[C@H]1CC[C@H]2[C@@H]3C[C@H](OS(=O)(=O)O)[C@H]4C[C@H](OS(=O)(=O)O)[C@@H](OS(=O)(=O)O)C[C@]4(C)[C@H]3CC[C@]12C` [MANADOSTEROL A], the IC50 in assay [1] worked out at 0.09 µM; in assay [3] it was 160 µM.

The values are drawn from ChEMBL document CHEMBL6096707, “UBE2N: Hope on the Cancer Front, How to Inhibit This Promising Target Prospect?” (J Med Chem, 2025).
